Read-outs that look alike come from different tables or passages of the source.
Legend:
GBA1 = biological target: T1, GBA1 (Homo sapiens, UniProt P04062, R534H); assay: GBA1 activity, recombinant human enzyme (Cerezyme), 4-MU-β-glucoside substrate; format: biochemical;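 further: enzyme activity read out as fluorescence of the 4-MU released from the substrate, measured on a fluorimeter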
T1 construct: purchased Sanofi (Cerezyme)
T1 sequence (P04062 40-536 R534H): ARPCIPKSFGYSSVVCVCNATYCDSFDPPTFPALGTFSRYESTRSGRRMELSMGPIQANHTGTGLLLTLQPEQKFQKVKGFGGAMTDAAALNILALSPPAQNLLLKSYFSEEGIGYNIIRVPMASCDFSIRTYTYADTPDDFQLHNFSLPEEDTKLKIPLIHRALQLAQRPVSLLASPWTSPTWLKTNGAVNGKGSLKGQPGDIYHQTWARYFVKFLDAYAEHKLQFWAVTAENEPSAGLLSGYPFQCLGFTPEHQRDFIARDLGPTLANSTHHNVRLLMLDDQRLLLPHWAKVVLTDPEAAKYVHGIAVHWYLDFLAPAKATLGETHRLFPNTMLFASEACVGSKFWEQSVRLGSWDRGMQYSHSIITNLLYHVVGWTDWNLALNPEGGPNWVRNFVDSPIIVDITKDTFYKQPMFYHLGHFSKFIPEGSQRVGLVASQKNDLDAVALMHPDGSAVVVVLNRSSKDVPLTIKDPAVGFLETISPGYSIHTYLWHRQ

[1] = biological target: T2, glucosylceramide synthase (GCS) (Mus musculus, UniProt O88693); assay: GCS activity in living macrophage  cells (C6-NBD lipid, TLC readout); format: cell-based
T2 construct: IC50 values for GCS activity were measured using living cells; endogenous in cells
T2 sequence (O88693 1-394): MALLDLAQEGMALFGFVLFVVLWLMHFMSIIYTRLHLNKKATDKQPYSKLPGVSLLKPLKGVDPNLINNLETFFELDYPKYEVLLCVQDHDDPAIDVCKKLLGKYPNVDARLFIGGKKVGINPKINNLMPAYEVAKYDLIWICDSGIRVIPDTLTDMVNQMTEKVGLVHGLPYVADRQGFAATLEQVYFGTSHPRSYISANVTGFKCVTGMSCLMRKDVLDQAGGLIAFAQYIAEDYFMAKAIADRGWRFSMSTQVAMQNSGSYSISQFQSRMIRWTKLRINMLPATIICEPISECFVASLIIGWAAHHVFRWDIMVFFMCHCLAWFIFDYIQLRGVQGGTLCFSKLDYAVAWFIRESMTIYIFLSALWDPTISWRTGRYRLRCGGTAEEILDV

GBA2 = biological target: T3, GBA2 (Homo sapiens, UniProt Q9HCG7); assay: GBA2 activity, membrane fraction from Gaucher spleen, 4-MU-β-glucoside substrate; format: biochemical;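 further: Read-out is fluorimetric quantification of released 4-MU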
T3 construct: measured using a membrane fraction obtained from Gaucher spleen; from tissue; host or cells: membrane fraction of Gaucher spleen, pre-treated with conduritol B-epoxide
T3 sequence (Q9HCG7 1-927): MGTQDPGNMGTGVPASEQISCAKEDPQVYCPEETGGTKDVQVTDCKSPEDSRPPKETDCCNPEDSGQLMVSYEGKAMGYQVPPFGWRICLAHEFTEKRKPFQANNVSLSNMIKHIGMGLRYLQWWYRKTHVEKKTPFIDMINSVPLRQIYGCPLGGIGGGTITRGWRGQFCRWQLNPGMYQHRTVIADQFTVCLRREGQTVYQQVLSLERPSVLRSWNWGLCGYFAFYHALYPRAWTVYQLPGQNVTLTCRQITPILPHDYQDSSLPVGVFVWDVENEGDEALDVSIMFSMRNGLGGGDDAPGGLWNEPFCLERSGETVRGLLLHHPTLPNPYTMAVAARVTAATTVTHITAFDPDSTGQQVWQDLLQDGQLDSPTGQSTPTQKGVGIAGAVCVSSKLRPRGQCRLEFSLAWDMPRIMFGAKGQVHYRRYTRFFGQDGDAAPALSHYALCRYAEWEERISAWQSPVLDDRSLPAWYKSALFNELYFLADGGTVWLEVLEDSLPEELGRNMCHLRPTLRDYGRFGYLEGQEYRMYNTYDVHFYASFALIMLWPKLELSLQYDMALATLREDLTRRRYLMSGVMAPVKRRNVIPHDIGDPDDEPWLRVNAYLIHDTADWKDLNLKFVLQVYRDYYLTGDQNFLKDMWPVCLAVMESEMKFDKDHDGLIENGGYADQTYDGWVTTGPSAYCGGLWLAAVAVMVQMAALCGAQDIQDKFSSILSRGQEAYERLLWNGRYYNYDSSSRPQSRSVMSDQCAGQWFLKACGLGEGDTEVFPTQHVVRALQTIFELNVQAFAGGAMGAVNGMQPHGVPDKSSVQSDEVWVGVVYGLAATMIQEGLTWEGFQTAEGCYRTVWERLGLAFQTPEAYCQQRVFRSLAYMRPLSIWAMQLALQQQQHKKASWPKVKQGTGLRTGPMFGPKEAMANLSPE

[2] = D-gluco configuration series, Example 3, read-out: GCS [nM] (IC50)
[3] = D-gluco configuration series, Example 3

SMILES	IC50 (GBA1) [nM]	IC50 [1, 2] [nM]	IC50 ([1]; read-out: inhibitory potency towards GCS, expressed as IC50) [nM]	IC50 ([1]; read-out: GCS [nM] (IC50))	IC50 (GBA2; [3]) [nM]	IC50 (GBA2) [nM]	IC50 (GBA2; L-ido configuration series, Example 4) [nM]
C[C@H](OCCCCCN1C[C@H](O)[C@@H](O)[C@H](O)[C@H]1CO)c1ccc(-c2ccccc2)cc1 [Compound 4]	10000	50	100				
C[C@@H](OCCCCCN1C[C@H](O)[C@@H](O)[C@H](O)[C@H]1CO)c1ccc(-c2ccccc2)cc1 [Compound 5]	10000	40					
OC[C@@H]1[C@@H](O)[C@H](O)[C@@H](O)CN1CCCCCOCc1ccc(-c2ccccc2)cc1F [Compound 6]	250			25			
OC[C@@H]1[C@@H](O)[C@H](O)[C@@H](O)CN1CCCCCOCc1ccc(-c2ccccc2)c(F)c1 [Compound 7]	200			25			
OC[C@@H]1[C@@H](O)[C@H](O)[C@@H](O)CN1CCCCCOCc1ccc(-c2ccccc2)cc1C(F)(F)F [Compound 8]	200			25	0.12		
OC[C@@H]1[C@@H](O)[C@H](O)[C@@H](O)CN1CCCCCOCc1ccc(-c2ccccc2)c(C(F)(F)F)c1 [Compound 9]	100			25			
OC[C@@H]1[C@@H](O)[C@H](O)[C@@H](O)CN1CCCC(F)(F)COCc1ccc(-c2ccccc2)cc1 [Compound 10]	12500			15		2	
OC[C@@H]1[C@@H](O)[C@H](O)[C@@H](O)CN1CC(F)(F)CCCOCc1ccc(-c2ccccc2)cc1 [Compound 11]	500			200		2	
OC[C@@H]1[C@@H](O)[C@H](O)[C@@H](O)CN1CCCCCOCc1ccc(-c2ccccc2)cn1 [Compound 12]	1500			200	3		
OC[C@@H]1[C@@H](O)[C@H](O)[C@@H](O)CN1CCCCCOCc1cccc(-c2ccccc2)c1 [Compound 13]	300			75	2		
OC[C@@H]1[C@@H](O)[C@H](O)[C@@H](O)CN1CCCCCOCc1ccccc1-c1ccccc1 [Compound 14]	1250			50	3		
OC[C@@H]1[C@@H](O)[C@H](O)[C@@H](O)CN1CCCCCOCc1ccc(-c2ccc(F)nc2)cc1 [Compound 15]	3000			750	5		
OC[C@@H]1[C@@H](O)[C@H](O)[C@@H](O)CN1CCCCCOCc1ccc(-c2ccnc(F)c2)cc1 [Compound 16]	2000			150	4		
OC[C@@H]1[C@@H](O)[C@H](O)[C@@H](O)CN1CCCCCOCc1ccc(-c2cccnc2)cc1 [Compound 17]	3000			200	10		
OC[C@@H]1[C@@H](O)[C@H](O)[C@@H](O)CN1CCCCCOCc1ccc(-c2ccncc2)cc1 [Compound 18]	2000	2000			10		
OC[C@@H]1[C@@H](O)[C@H](O)[C@@H](O)CN1CCCCCOCc1ccc(-c2ccc3c(c2)OCCCO3)cc1 [Compound 19]	3000			25		10	
OC[C@@H]1[C@@H](O)[C@H](O)[C@@H](O)CN1CCCCCOCc1ccc(-c2ccc3c(c2)OCCO3)cc1 [Compound 20]	3000			25		10	
OC[C@@H]1[C@@H](O)[C@H](O)[C@@H](O)CN1CCCCCOCc1ccc(-c2ccc3c(c2)OCO3)cc1 [Compound 21]	2500			25		10	
OC[C@@H]1[C@@H](O)[C@H](O)[C@@H](O)CN1CCCCCOCc1ccc(-c2cc(C(F)(F)F)cc(C(F)(F)F)c2)cc1 [Compound 22]	800			20	15		
OC[C@@H]1[C@@H](O)[C@H](O)[C@@H](O)CN1CCCCCOCc1ccc(-c2ccc(C(F)(F)F)cc2)cc1 [Compound 23]	800			20	10		
OC[C@@H]1[C@@H](O)[C@H](O)[C@@H](O)CN1CCCCCOCc1ccc(-c2ccc(Cl)cc2)cc1 [Compound 24]	500			25	2		
OC[C@@H]1[C@@H](O)[C@H](O)[C@@H](O)CN1CCCCCOCc1ccc(-c2ccccc2F)cc1 [Compound 25]	600			74	2		
OC[C@@H]1[C@@H](O)[C@H](O)[C@@H](O)CN1CCCCCOCc1ccc(-c2cccc(F)c2)cc1 [Compound 26]	250			25		2	
OC[C@@H]1[C@@H](O)[C@H](O)[C@@H](O)CN1CCCCCOCc1ccc(-c2ccc(F)cc2)cc1 [Compound 27]	400			25	1		
N#Cc1ccccc1-c1ccc(COCCCCCN2C[C@H](O)[C@@H](O)[C@H](O)[C@H]2CO)cc1 [Compound 28]	600			150	5		
N#Cc1cccc(-c2ccc(COCCCCCN3C[C@H](O)[C@@H](O)[C@H](O)[C@H]3CO)cc2)c1 [Compound 29]	700	50			2		
N#Cc1ccc(-c2ccc(COCCCCCN3C[C@H](O)[C@@H](O)[C@H](O)[C@H]3CO)cc2)cc1 [Compound 30]	350			150	3		
COc1ccccc1-c1ccc(COCCCCCN2C[C@H](O)[C@@H](O)[C@H](O)[C@H]2CO)cc1 [Compound 31]	600			50		0.7	
COc1cccc(-c2ccc(COCCCCCN3C[C@H](O)[C@@H](O)[C@H](O)[C@H]3CO)cc2)c1 [Compound 32]	2500			150	20		
OC[C@H]1[C@@H](O)[C@H](O)[C@@H](O)CN1CC(F)(F)CCCOCc1ccc(-c2ccccc2)cc1 [Compound 42]	500000						2

Reference: US10590082B2, “N-(5-((aryl or heteroaryl)methyloxy)pentyl)-substituted iminosugars as inhibitors of glucosylceramide synthase” (Academisch Medisch Centrum, priority 2014, dated 2020)
